What is called Tm is the temperature at the midpoint of the melting transition. The term EC50 denotes the concentration at which the effect is half-maximal.

Residues, ends and D or L forms follow the SMILES beside them.

This passage reports Tm, EC50 and Activity results from ChEMBL document CHEMBL3390848, “Affinity selection and sequence-activity relationships of HIV-1 membrane fusion inhibitors directed at the drug-resistant variants” (Medchemcomm, 2010).

In assay [1] the test system is Human immunodeficiency virus 1. Nature of the assay: Thermal stability of HIV1 envelope glycoprotein gp41 His-tagged N-terminal heptad repeat N36-drug complex assessed as thermal unfolding transition state by measuring molar ellipticity at 4 to 90 degC by circular dichroic spectra analysis.
The subject of assay [2] is Human immunodeficiency virus 1. Nature of the assay: Antiviral activity against HIV1 NL4-3 harboring gp41 D36G mutant infected in human HeLa cells expressing CD4-LTR-beta-gal assessed as inhibition of viral replication after 48 hrs by MAGI assay. It is filed as functional, organism-based.
Assay [3] concerns Human immunodeficiency virus 1. Nature of the assay: Binding affinity to HIV1 His-tagged N-terminal heptad repeat of envelope glycoprotein gp41 assessed as recovery of N36-drug complex after 2 hrs by LC-MS analysis. More on the design: concentration or dose not given beside the values.

On to `CC[C@H](C)[C@H](NC(=O)[C@H](CC(C)C)NC(=O)[C@H](CCC(=O)O)NC(=O)[C@H](CCC(=O)O)NC(=O)[C@@H](NC(=O)[C@H](CCCCN)NC(=O)[C@H](CCCCN)NC(=O)[C@@H](NC(=O)[C@H](Cc1ccc(O)cc1)NC(=O)[C@H](CCC(=O)O)NC(=O)[C@H](CCC(=O)O)NC(=O)[C@@H](NC(=O)[C@H](CCCCN)NC(=O)[C@H](CCCCN)NC(=O)[C@H](CC(=O)O)NC(=O)[C@H](Cc1c[nH]c2ccccc12)NC(=O)[C@H](CCC(=O)O)NC(=O)[C@H](CCC(=O)O)NC(=O)[C@H](Cc1c[nH]c2ccccc12)NC(C)=O)[C@@H](C)CC)[C@@H](C)O)[C@@H](C)CC)C(=O)N[C@@H](CCCCN)C(=O)N[C@@H](CCCCN)C(=O)N[C@@H](CO)C(=O)N[C@@H](CCC(=O)O)C(=O)N[C@@H](CCC(=O)O)C(=O)N[C@@H](Cc1ccccc1)C(=O)N[C@@H](CCC(N)=O)C(=O)N[C@@H](CCCCN)C(=O)N[C@@H](CCCCN)C(=O)N[C@@H](CC(N)=O)C(=O)N[C@@H](CCC(=O)O)C(=O)N[C@@H](CCC(=O)O)C(=O)N[C@@H](CCC(=O)O)C(=O)N[C@@H](CC(C)C)C(=O)N[C@@H](CCCCN)C(=O)N[C@@H](CCCCN)C(N)=O` (Ac-WEEWDKKIEEYTKKIEELIKKSEEFQKKNEEELKK-NH2), for which, in assay [1], the Tm came out at 76.7 °C. Moreover, the concentration giving a half-maximal response (EC50) in assay [2] was 2.6 nM. Moreover, the Activity in assay [3] amounted to 5.7%.

As for `CC[C@H](C)[C@H](NC(=O)[C@H](CC(C)C)NC(=O)[C@H](CCC(=O)O)NC(=O)[C@H](CCC(=O)O)NC(=O)[C@@H](NC(=O)[C@H](CCCCN)NC(=O)[C@H](CCCCN)NC(=O)[C@@H](NC(=O)[C@H](Cc1ccc(O)cc1)NC(=O)[C@H](CCC(=O)O)NC(=O)[C@H](CCC(=O)O)NC(=O)[C@@H](NC(=O)[C@H](CCCCN)NC(=O)[C@H](CCCCN)NC(=O)[C@H](CC(=O)O)NC(=O)[C@H](Cc1c[nH]c2ccccc12)NC(=O)[C@H](CCC(=O)O)NC(=O)[C@H](CCC(=O)O)NC(=O)[C@H](Cc1c[nH]c2ccccc12)NC(C)=O)[C@@H](C)CC)[C@@H](C)O)[C@@H](C)CC)C(=O)N[C@@H](CCCCN)C(=O)N[C@@H](CCCCN)C(=O)N[C@@H](CO)C(=O)N[C@@H](CCC(=O)O)C(=O)N[C@@H](CCC(=O)O)C(=O)N[C@@H](C)C(=O)N[C@@H](CCC(N)=O)C(=O)N[C@@H](CCCCN)C(=O)N[C@@H](CCCCN)C(=O)N[C@@H](CC(N)=O)C(=O)N[C@@H](CCC(=O)O)C(=O)N[C@@H](CCC(=O)O)C(=O)N[C@@H](CCC(=O)O)C(=O)N[C@@H](CC(C)C)C(=O)N[C@@H](CCCCN)C(=O)N[C@@H](CCCCN)C(N)=O` (Ac-WEEWDKKIEEYTKKIEELIKKSEEAQKKNEEELKK-NH2), the Tm in assay [1] was 76.1 °C. Also, the concentration for a half-maximal effect (EC50) in assay [2] was determined as 1.6 nM. In assay [3], the Activity was determined as 6.6%.

As for `CC[C@H](C)[C@H](NC(=O)[C@H](CC(C)C)NC(=O)[C@H](CCC(=O)O)NC(=O)[C@H](CCC(=O)O)NC(=O)[C@@H](NC(=O)[C@H](CCCCN)NC(=O)[C@H](CCCCN)NC(=O)[C@@H](NC(=O)[C@H](Cc1ccc(O)cc1)NC(=O)[C@H](CCC(=O)O)NC(=O)[C@H](CCC(=O)O)NC(=O)[C@@H](NC(=O)[C@H](CCCCN)NC(=O)[C@H](CCCCN)NC(=O)[C@H](CC(=O)O)NC(=O)[C@H](Cc1c[nH]c2ccccc12)NC(=O)[C@H](CCC(=O)O)NC(=O)[C@H](CCC(=O)O)NC(=O)[C@H](Cc1c[nH]c2ccccc12)NC(C)=O)[C@@H](C)CC)[C@@H](C)O)[C@@H](C)CC)C(=O)N[C@@H](CCCCN)C(=O)N[C@@H](CCCCN)C(=O)N[C@@H](CO)C(=O)N[C@@H](CCC(=O)O)C(=O)N[C@@H](CCC(=O)O)C(=O)N[C@@H](CC(C)C)C(=O)N[C@@H](CCC(N)=O)C(=O)N[C@@H](CCCCN)C(=O)N[C@@H](CCCCN)C(=O)N[C@@H](CC(N)=O)C(=O)N[C@@H](CCC(=O)O)C(=O)N[C@@H](CCC(=O)O)C(=O)N[C@@H](CCC(=O)O)C(=O)N[C@@H](CC(C)C)C(=O)N[C@@H](CCCCN)C(=O)N[C@@H](CCCCN)C(N)=O` (Ac-WEEWDKKIEEYTKKIEELIKKSEELQKKNEEELKK-NH2), the Tm in assay [1] worked out at 83.8 °C. In addition, the concentration giving a half-maximal response (EC50) in assay [2] was determined as 2.7 nM. The Activity in assay [3] came to 8.2%.
